Test results from PMC10349806 (Nature Communications, 2023).
Where a chain is given by its changes, count along the chain named. Values joined by “and” are separate entries in the source; they are usually repeats but may differ in a detail not shown here. Equal entries are not always repeated.

Columns and labels:
PfCRT variant Y276A = target: T1, PfCRT variant Y276A (Plasmodium falciparum, UniProt Q9N623, A220S/I356T/K76T/M74I/N326S/N75E/Q271E/R371I/Y276A); experiment: CQ uptake assay, oocytes expressing Y276A; format: cell-based
T1 sequence (Q9N623 1-424 M74I/N75E/K76T/A220S/Q271E/Y276A/N326S/I356T/R371I): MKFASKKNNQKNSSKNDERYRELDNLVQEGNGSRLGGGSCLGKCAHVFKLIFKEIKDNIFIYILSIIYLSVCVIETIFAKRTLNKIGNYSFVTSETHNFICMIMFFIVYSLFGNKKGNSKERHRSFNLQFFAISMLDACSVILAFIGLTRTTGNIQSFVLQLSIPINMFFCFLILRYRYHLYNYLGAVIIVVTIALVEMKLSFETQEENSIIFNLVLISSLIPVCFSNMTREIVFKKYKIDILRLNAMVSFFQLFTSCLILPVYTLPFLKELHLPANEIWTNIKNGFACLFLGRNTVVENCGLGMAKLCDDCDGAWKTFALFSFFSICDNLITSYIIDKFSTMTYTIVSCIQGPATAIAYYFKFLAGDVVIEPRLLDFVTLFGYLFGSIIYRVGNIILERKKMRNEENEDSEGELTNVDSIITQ
Method: (§1) Site-directed mutagenesis of PfCRT^Dd2 was performed as described using the megaprimer method with overlap extension[21],[54]. The primer pairs used are listed in Supplementary Table 6. Please note that a codon-optimized and oocyte-adapted version of PfCRT^Dd2 was used[22] (Supplementary Fig. 16). The resulting DNA fragment was cloned into the SP64T expression vector and verified by sequencing.
(§2) Oocytes were obtained as described previously. Briefly, adult (>2 years old) female X. laevis frogs (NASCO) were anesthetized in a cooled solution of ethyl 3-amino benzoate methanesulfonate (0.1%, w/v), followed by a surgical removal of parts of the ovary. The ovary lobes were carefully dissected and small pieces of oocytes were incubated in Ca^2+-free ND96 buffer (96 mM NaCl, 2 mM KCl, 1 mM MgCl2 buffered with 5 mM HEPES/NaOH, pH 7.5) supplemented with collagenase D (0.1%, w/v; Roche), BSA (0.5%, w/v), and 9 mm Na2HPO4 at 18 °C for 14-16 h while gentle shaking. After incubation, the oocytes were carefully washed several times with ND96 buffer (96 mM NaCl, 2 mM KCl, 1.8 mM CaCl2, 1 mM MgCl2 buffered with 5 mM HEPES/NaOH, pH 7.5) supplemented with 100 mg l^−1 gentamycin). Defolliculated and healthy-looking stage V-VI oocytes were manually selected for RNA microinjection. The RNA was generated as following: The codon-optimized sequences of PfCRT variants were cloned into the pSP64T expression vector. After vector linearization using the restriction endonucleases BamHI or SalI (New England Biolabs), transcription was performed using the in vitro SP6 mMessage mMachine Kit (Ambion)[34]. The obtained RNA was kept at −80 °C and diluted with nuclease-free water to a concentration of 0.6 μg μl^−1. Precision-bore glass capillary tubes (3.5-inch glass capillaries; Drummond Scientific Co.) were pulled on a vertical puller (P-87 Flaming/Brown micropipette puller, Sutter Instrument Co.), graduated, and placed on a microinjector (Nanoject II Auto-Nanoliter Injector, Drummond Scientific Co.). 50 nl of nuclease-free water alone (control oocytes) or 50 nl of 0.6 μg μl^−1 RNA were injected under stereomicroscopic control. Injected oocytes were incubated for 46–72 h at 18 °C with twice-daily buffer changes before usage in experiments.
(§3) Drug uptake assays were performed as described previously[21],[22],[24],[34]. […] The direction of radio-labeled drug transport is here from the mostly acidic extracellular solution (pH 4.5 or 6.0, as indicated) into the oocyte cytosol (pH ∼ 7.2), which corresponds to the efflux of drug from the acidic digestive vacuole (pH 5.2) into the parasite cytoplasm (pH 7.2). The topology of PfCRT in the oolemma is such that both the N- and C-terminus face the extracellular milieu[3],[22]. In the parasite, the N- and C-terminus face the lumen of the digestive vacuole. […] For determination of the amount of drug uptake for each oocyte, the reaction medium was removed and the oocytes were washed three times with 2 ml of ice-cold ND96 buffer. Each oocyte was individually transferred to a scintillation vial containing 5% sodium dodecyl sulfate (200 μl) for lysis. […] Oocytes that were injected with water instead of RNA were analyzed in parallel, representing the uptake of a drug by diffusion and/or endogenous permeation pathways. The resulting value represents the “background“ level of drug accumulation in oocytes (in-depth discussion in[22]). The specific PfCRT-mediated uptake was determined by subtracting the corresponding background value measured in water-injected oocytes from that of PfCRT-expressing oocytes. In all cases, at least three separate experiments were performed on oocytes from different frogs (biological replicate), and for each condition in an experiment, measurements were made from 10 oocytes per treatment. For pH 5.5, 6.0, and 6.5, ND96 was buffered with 5 mM MES/Tris base.

PfCRT variant E207L = target: T2, PfCRT variant E207L (Plasmodium falciparum, UniProt Q9N623, A220S/E207L/I356T/K76T/M74I/N326S/N75E/Q271E/R371I); experiment: CQ uptake assay, oocytes expressing E207L; format: cell-based
T2 construct: expressed in transfected cells; host or cells: Xenopus laevis oocytes injected with in vitro transcribed RNA (pSP64T)
T2 sequence (Q9N623 1-424 M74I/N75E/K76T/E207L/A220S/Q271E/N326S/I356T/R371I): T1 sequence (Q9N623 1-424 M74I/N75E/K76T/A220S/Q271E/Y276A/N326S/I356T/R371I) with E207L, A276Y
Method: as §1, §2, §3

PfCRT variant E207I = experiment: CQ uptake assay, oocytes expressing E207I; format: cell-based, Plasmodium falciparum
Method: as §1, §2, §3

[1] = Y276A, 50 µM CQ, 1 h, mean ± SEM
[2] = E207L, 50 µM CQ, 1 h, mean ± SEM
[3] = pH 4.5, individual replicates, Fig 6b
[4] = pH 6.0, individual replicates, Fig 6b
[5] = ratio of activity pH 4.5 / pH 6.0
[6] = E207I, 50 µM CQ, 1 h, mean ± SEM

CCN(CC)CCCC(C)Nc1ccnc2cc(Cl)ccc12 (stereo not drawn) [CQ, chloroquine]
Activity at pH 4.5 (PfCRT variant Y276A; [1]): 1.50 ± 0.12 pmol h-1 oocyte-1 | Activity at pH 6.0 (PfCRT variant Y276A; [1]): 3.51 ± 0.35 pmol h-1 oocyte-1 | R-value (PfCRT variant Y276A; Y276A, CQ transport at pH 4.5 / pH 6.0): 0.45 ± 0.09 | Y276A transport activity pH 4.5 (PfCRT variant Y276A; pH 4.5, single replicates, Fig 1d left): 1.28 pmol oocyte-1 h-1 and 1.46 pmol oocyte-1 h-1 | Y276A R-value (PfCRT variant Y276A; pH 4.5 vs pH 6.0, Fig 1d left): 0.34 and 0.66 and 0.36 | Y276A transport activity pH 6.0 (PfCRT variant Y276A; pH 6.0, single replicates, Fig 1d left): 3.78 pmol oocyte-1 h-1 and 2.68 pmol oocyte-1 h-1 and 4.08 pmol oocyte-1 h-1 | Activity at pH 4.5 (PfCRT variant E207L; [2]): 2.10 ± 0.17 pmol h-1 oocyte-1 | Activity at pH 6.0 (PfCRT variant E207L; [2]): 2.25 ± 0.22 pmol h-1 oocyte-1 | R-value (PfCRT variant E207L; E207L, CQ transport at pH 4.5 / pH 6.0): 0.95 ± 0.04 | E207L transport activity pH 4.5 (PfCRT variant E207L; [3]): 2.14 pmol oocyte-1 h-1 and 2.36 pmol oocyte-1 h-1 and 2.37 pmol oocyte-1 h-1 and 1.53 pmol oocyte-1 h-1 | E207L transport activity pH 6.0 (PfCRT variant E207L; [4]): 2.70 pmol oocyte-1 h-1 and 2.35 pmol oocyte-1 h-1 and 1.52 pmol oocyte-1 h-1 | E207L R-value (PfCRT variant E207L; [5]): 0.79 and 1.00 and 0.98 and 1.01 | Activity at pH 4.5 (PfCRT variant E207I; [6]): 2.05 ± 0.22 pmol h-1 oocyte-1 | Activity at pH 6.0 (PfCRT variant E207I; [6]): 2.15 ± 0.11 pmol h-1 oocyte-1 | R-value (PfCRT variant E207I; E207I, CQ transport at pH 4.5 / pH 6.0): 0.95 ± 0.01 | E207I transport activity pH 4.5 (PfCRT variant E207I; [3]): 2.06 pmol oocyte-1 h-1 and 2.31 pmol oocyte-1 h-1 | E207I transport activity pH 6.0 (PfCRT variant E207I; [4]): 2.16 pmol oocyte-1 h-1 and 1.90 pmol oocyte-1 h-1 and 2.38 pmol oocyte-1 h-1 | E207I R-value (PfCRT variant E207I; [5]): 0.95 and 0.93 and 0.97
